Measurements as given in patent publication US20240140957A1, “BRIDGED COMPOUNDS AS KRAS G12D INHIBITOR AND DEGRADER AND THE USE THEREOF” (BeiGene Switzerland GmbH, priority 2021, published 2024).

Assays:
KRAS G12D:SOS1 = KRAS G12D:SOS1 (Homo sapiens, UniProt P01116, G12D); assay: KRAS G12D:SOS1 GDP TR-FRET assay; format: binding; settings: GST-KRAS G12D 37.5 nM, GDP 10 μM, His-SOS1 18 nM
Description: (§1) KRAS:SOS1 GDP TR-FRET Assay
(§2) This assay was used to identify compounds which competitively interact with the binding of KRAS protein to SOS1 in the presence of GDP. […] All protein and reaction solutions were prepared in assay buffer containing DPBS pH7.5, 0.1% BSA, and 0.05% Tween 20. Purified GST-tagged WT KRAS or KRAS G12D protein (37.5 nM final assay concentration) and GDP (Sigma, 10 μM final assay concentration) mixture, a serially diluted compound (top final concentration is 50 μM or 10 uM, 3-fold serially diluted, 10 points) and His-tagged SOS1 protein (18 nM final assay concentration) were added into the assay plates (384 well microplate, black, Corning) sequentially. Plates are incubated at 24° C. for 1 hr. Following the incubation, Mab Anti-GST-Tb cryptate (Cisbio) and […] (Cisbio) were added and further incubated at 24° C. for another 1 hr. The TR-FRET signals (ex337 nm, em665 nm/620 nm) were read on BMG PHERAstar FSX instrument. The inhibition percentage of KRAS protein binding with SOS1 in presence of increasing concentrations of compounds was calculated based on the ratio of fluorescence at 665 nm to that at 620 nm. The IC50 value of each compound was calculated from fitting the data to the four-parameter logistic model by Dotmatics.

WT KRAS:SOS1 = WT KRAS:SOS1 (Homo sapiens, UniProt P01116); assay: KRAS WT:SOS1 GDP TR-FRET assay; format: binding; settings: GST-WT KRAS 37.5 nM, GDP 10 μM, His-SOS1 18 nM
Description: as §1, §2

[1] = test system: pERK1/2 (THR202/TYR204) in AsPC-1 cells; assay: pERK Assay (HTRF) in AsPC-1 cells; format: cell-based; settings: Homo sapiens, ASPC1, 2 h compound treatment
Description: AsPC-1 cell line was used in this study. […] 30000 cells per well were seeded into a 96-well plate and incubated overnight. […] After 2 h compound treatment, cells were lysed, and the pERK1/2 (THR202/TYR204) level in the cell lysates was detected by HTRF kit (Cisbio). In brief, a total of 16 μL of cell lysate from each well of a 96-well plate was transferred to a 384-well white assay plate. Lysate from each well was incubated with 2 μL of Eu3+-cryptate (donor) labeled anti-phospho-ERK1/2 and 2 μL of D2 (acceptor) labeled anti-phospho-ERK1/2 antibodies (Cisbio) overnight in dark at room temperature. When donor and acceptor are in close proximity, excitation of the donor with laser triggers a Fluorescence Resonance Energy Transfer (FRET) towards the acceptor, which in turn fluoresces at 655 nm wavelength. FRET signals were measured using a PHERAstar FSX reader (BMG Labtech).

GDP-loaded KRAS G12D = GDP-loaded KRAS G12D (Homo sapiens, UniProt P01116, G12D); assay: KRAS G12D Probe Displacement Assay; format: binding; settings: KRAS G12D 0.5 nM, biotinylated probe 2 4 nM; Table 6 letters; read-out: KRAS G12D Probe Displacement Assay IC50 (class)
Sequence of GDP-loaded KRAS G12D (P01116 1-188 isoform P01116-2 G12D): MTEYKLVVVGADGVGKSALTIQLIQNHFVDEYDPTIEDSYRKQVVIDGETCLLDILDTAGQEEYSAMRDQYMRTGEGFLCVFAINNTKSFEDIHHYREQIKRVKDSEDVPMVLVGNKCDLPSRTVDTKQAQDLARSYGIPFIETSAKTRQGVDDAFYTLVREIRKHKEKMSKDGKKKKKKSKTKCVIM

Sequence of KRAS G12D:SOS1 (P01116 1-188 isoform P01116-2 G12D): as above
Sequence of WT KRAS:SOS1 (P01116 1-188 isoform P01116-2): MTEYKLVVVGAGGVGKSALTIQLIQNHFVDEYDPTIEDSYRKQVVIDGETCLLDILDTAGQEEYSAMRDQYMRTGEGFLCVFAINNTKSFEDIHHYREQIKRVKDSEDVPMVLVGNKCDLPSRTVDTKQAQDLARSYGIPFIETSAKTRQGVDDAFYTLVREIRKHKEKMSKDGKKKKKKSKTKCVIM

`CC(CN1CCCCC1)Oc1nc(N2CC3CCC(C2)N3)c2cc(Cl)c(-c3ccc(F)c4sc(N)nc34)c(F)c2n1` (stereo not drawn) [Example E5, 4-(4-(3,8-diazabicyclo [3.2.1]octan-3-yl)-6-chloro-8-fluoro-2-((1-(piperidin-1-yl)propan-2-yl)_oxy)quinazolin-7-yl)-7-fluorobenzo[d]thiazol-2-amine] gave an IC50 (KRAS G12D:SOS1) of 20 nM, an IC50 (WT KRAS:SOS1) of 402 nM and an IC50 [1] of 2870 nM.

For `CC(CN1CCCCC1)Oc1nc(N2CC3CC(C2)N3)c2cc(Cl)c(-c3ccc(F)c4sc(N)nc34)c(F)c2n1` (stereo not drawn) [Example E6, 4-(4-(3,6-diazabicyclo[3.1.1]heptan-3-yl)-6-chloro-8-fluoro-2-((1-(piperidin-1-yl)propan-2-yl)oxy)quinazolin-7-yl)-7-fluorobenzo[d]thiazol-2-amine], the IC50 (KRAS G12D:SOS1) was 18 nM, the IC50 (WT KRAS:SOS1) was 1060 nM and the IC50 [1] was 7080 nM.

Compound `CN1CCC[C@H]1COc1nc(N2CC3CCC(C2)N3)c2cc(Cl)c(-c3ccc(F)c4sc(N)nc34)c(F)c2n1` [Example E16, 4-(4-(3,8-diazabicyclo[3.2.1]octan-3-yl)-6-chloro-8-fluoro-2-(((S)-1-methylpyrrolidin-2-yl)methoxy)quinazolin-7-yl)-7-fluorobenzo[d]thiazol-2-amine] has an IC50 (KRAS G12D:SOS1) of 2.8 nM, an IC50 (WT KRAS:SOS1) of 27 nM and an IC50 [1] of 1520 nM.

Compound `C[C@@H](CN1CCC(F)(F)CC1)Oc1nc(N2CC3CCC(C2)N3)c2cc(Cl)c(-c3ccc(F)c4sc(N)nc34)c(F)c2n1` [Example E17, 4-(4-(3,8-diazabicyclo[3.2.1]octan-3-yl)-6-chloro-2-(((S)-1-(4,4-difluoropiperidin-1-yl)propan-2-yl)oxy)-8-fluoroquinazolin-7-yl)-7-fluorobenzo[d]thiazol-2-amine] has an IC50 (KRAS G12D:SOS1) of 4.2 nM, an IC50 (WT KRAS:SOS1) of 785 nM and an IC50 [1] of 2880 nM.

For `C[C@@H](CN1CC(F)(F)C1)Oc1nc(N2CC3CCC(C2)N3)c2cc(Cl)c(-c3ccc(F)c4sc(N)nc34)c(F)c2n1` [Example E32, 4-(4-(3,8-diazabicyclo[3.2.1]octan-3-yl)-6-chloro-2-(((S)-1-(3,3-difluoroazetidin-1-yl)propan-2-yl)oxy)-8-fluoroquinazolin-7-yl)-7-fluorobenzo[d]thiazol-2-amine], the IC50 (KRAS G12D:SOS1) was 81 nM and the IC50 (WT KRAS:SOS1) was > 10000 nM.

For `CN(C)CCCOc1nc(N2CCNCC2)c2cc(Cl)c(-c3cc(O)cc4ccccc34)c(F)c2n1` [Example E1, 4-(6-chloro-2-(3-(dimethylamino)propoxy)-8-fluoro-4-(piperazin-1-)quinazolin-7-yl)naphthalen-2-ol], the IC50 (KRAS G12D:SOS1) was 1870 nM, the IC50 (WT KRAS:SOS1) was 26900 nM and the IC50 [1] was > 10000 nM.

`C[C@@H](CN1CCCCC1)Oc1nc(N2CC3CCC(C2)N3)c2cc(Cl)c(-c3ccc(F)c4sc(N)nc34)c(F)c2n1` [Example E11, 4-(4-(3,8-diazabicyclo[3.2.1]octan-3-yl)-6-chloro-8-fluoro-2-(((S)-1-(piperidin-1-yl)propan-2-yl)oxy)quinazolin-7-yl)-7-fluorobenzo[d]thiazol-2-amine] showed an IC50 (KRAS G12D:SOS1) of 1.9 nM, an IC50 (WT KRAS:SOS1) of 30 nM and an IC50 [1] of 859 nM.

In the case of `CN(C)CCCOc1nc(N2CC3CC2CN3)c2cc(Cl)c(-c3ccc(F)c4sc(N)nc34)c(F)c2n1` (stereo not drawn) [Example E3, 4-(4-(2,5-diazabicyclo[2.2.1]heptan-2-yl)-6-chloro-2-(3-(dimethylamino)propoxy)-8-fluoroquinazolin-7-yl)-7-fluorobenzo[d]thiazol-2-amine], the IC50 (KRAS G12D:SOS1) is reported as 68 nM, the IC50 (WT KRAS:SOS1) is reported as 3290 nM and the IC50 [1] is reported as > 10000 nM.

For `CS(=O)(=O)N1CCN(c2nc(OC[C@@H]3CCCN3CCCOCCC(=O)NCCOCCNC(=O)CCCC[C@@H]3SC[C@@H]4NC(=O)N[C@@H]43)nc3c2CCN(c2cccc4cccc(Cl)c24)C3)C[C@@H]1CC#N` [Example E57, N-(2-(2-(3-(3-((S)-2-(((7-(8-chloronaphthalen-1-yl)-4-((S)-3-(cyanomethyl)-4-(methylsulfonyl)piperazin-1-yl)-5,6,7,8-tetrahydropyrido[3,4-d]pyrimidin-2-yl)oxy)methyl)pyrrolidin-1-yl)propoxy)propanamido)ethoxy)ethyl)-5-((3aS,4S,6aR)-2-oxohexahydro-1H-thieno[3,4-d]imidazol-4-yl)pentanamide], the IC50 (KRAS G12D:SOS1) was > 10000 nM and the IC50 (WT KRAS:SOS1) was 130 nM.

With `Nc1nc2c(-c3c(Cl)cc4c(N5CCNCC5)nc(OCCCN5CCN(CCCOCCC(=O)NCCOCCNC(=O)CCCC[C@@H]6SC[C@@H]7NC(=O)N[C@@H]76)CC5)nc4c3F)ccc(F)c2s1` [Example E56, N-(2-(2-(3-(3-(4-(3-((7-(2-amino-7-fluorobenzo[d]thiazol-4-yl)-6-chloro-8-fluoro-4-(piperazin-1-yl)quinazolin-2-yl)oxy)propyl)piperazin-1-yl)propoxy)propanamido)ethoxy)ethyl)-5-((3 aS, 4S,6aR)-2-oxohexahydro-1H-thieno[3,4-d]imidazol-4-yl)pentanamide] the IC50 (KRAS G12D:SOS1) was 21 nM and the IC50 (WT KRAS:SOS1) was 370 nM.

`CN(C)C1CN(c2nc(N3CCNCC3)c3cc(Cl)c(-c4cc(O)cc5ccccc45)c(F)c3n2)C1` [Example E2, 4-(6-chloro-2-(3-(dimethylamino)azetidin-1-yl)-8-fluoro-4-(piperazin-1-yl)quinazolin-7-yl)naphthalen-2-ol] was tested, and the IC50 (KRAS G12D:SOS1) was 4850 nM and the IC50 (WT KRAS:SOS1) was > 50000 nM.

With `Nc1cc(Cl)c(C(F)(F)F)c(-c2c(Cl)cc3c(N4C5CCC4CNC5)nc(OC[C@@]45CCCN4C[C@H](F)C5)nc3c2F)n1` [Example E102, 6-(4-(3,8-diazabicyclo[3.2.1]octan-8-yl)-6-chloro-8-fluoro-2-(((2R,7aS)-2-fluorotetrahydro-1H-pyrrolizin-7a(5H)-yl)methoxy)quinazolin-7-yl)-4-chloro-5-(trifluoromethyl)pyridin-2-amine] the IC50 (GDP-loaded KRAS G12D) was < 50 nM.

For `C=Cc1cc(N)nc(-c2c(Cl)cc3c(N4CC5CCC(C4)N5)nc(OC[C@@]45CCCN4C[C@H](F)C5)nc3c2F)c1C(F)(F)F` [Example E125, 6-(4-(3,8-diazabicyclo[3.2.1]octan-3-yl)-6-chloro-8-fluoro-2-(((2R,7aS)-2-fluorotetrahydro-1H-pyrrolizin-7a(5H)-yl)methoxy)quinazolin-7-yl)-5-(trifluoromethyl)-4-vinylpyridin-2-amine], the IC50 (GDP-loaded KRAS G12D) was < 50 nM.

For `CN1CCCC1(CC#N)COc1nc(N2CC3CCC(C2)N3)c2cc(C(F)(F)F)c(-c3ccc(F)c4sc(N)nc34)c(F)c2n1` (stereo not drawn) [Example E121, 2-(2-(((7-(2-amino-7-fluorobenzo[d]thiazol-4-yl)-4-(3,8-diazabicyclo[3.2.1]octan-3-yl)-8-fluoro-6-(trifluoromethyl)quinazolin-2-yl)oxy)methyl)-1-methylpyrrolidin-2-yl)acetonitrile], the IC50 (GDP-loaded KRAS G12D) was < 50 nM.

With `Nc1nc2c(-c3c(C(F)(F)F)cc4c(N5CC6CCC(C5)N6)nc(OC[C@@H]5COCCO5)nc4c3F)ccc(F)c2s1` [Example E219, 4-(2-(((S)-1,4-dioxan-2-yl)methoxy)-4-(3,8-diazabicyclo[3.2.1]octan-3-yl)-8-fluoro-6-(trifluoromethyl)quinazolin-7-yl)-7-fluorobenzo[d]thiazol-2-amine] the IC50 (GDP-loaded KRAS G12D) was < 50 nM.

For `Nc1nc2c(-c3c(C(F)(F)F)cc4c(N5CC6CCC(C5)N6)nc(OCC5COCC5O)nc4c3F)ccc(F)c2s1` (stereo not drawn) [Example E209, 4-(((7-(2-amino-7-fluorobenzo[d]thiazol-4-yl)-4-(3,8-diazabicyclo [3.2.1]octan-3-yl)-8-fluoro-6-(trifluoromethyl)quinazolin-2-yl)oxy)methyl)tetrahydrofuran-3-ol], the IC50 (GDP-loaded KRAS G12D) was < 50 nM.

`N#Cc1c(N)sc2c(F)ccc(-c3c(C(F)(F)F)cc4c(N5CC6CCC(C5)N6)nc(OCC56COC(C5)C6)nc4c3F)c12` [Example E236, 4-(2-((2-oxabicyclo[2.1.1]hexan-4-yl)methoxy)-4-(3,8-diazabicyclo[3.2.1]octan-3-yl)-8-fluoro-6-(trifluoromethyl)quinazolin-7-yl)-2-amino-7-fluorobenzo [b]thiophene-3-carbonitrile] was tested, and the IC50 (GDP-loaded KRAS G12D) was < 50 nM.

With `CS(=O)(=O)N1CC(COc2nc(N3CC4CCC(C3)N4)c3cc(C(F)(F)F)c(-c4ccc(F)c5sc(N)nc45)c(F)c3n2)C1` [Example E175, 4-(4-(3,8-diazabicyclo[3.2.1]octan-3-yl)-8-fluoro-2-((1-(methylsulfonyl)azetidin-3-yl)methoxy)-6-(trifluoromethyl)quinazolin-7-yl)-7-fluorobenzo[d]thiazol-2-amine] the IC50 (GDP-loaded KRAS G12D) was < 50 nM.
